From patent EP0257993B1, “Nucleic acid fragment encoding herbicide resistant plant acetolactate synthase” (priority 1986, dated 1988)

Assays:
[1] = test system: Hra mutant plants; assay: Foliar application to Hra mutant plants; type: in vivo, Nicotiana tabacum
[2] = test system: ALS; assay: ALS assay of leaf extracts, wild type tobacco; type: biochemical, Nicotiana tabacum CV.NK326 or K14; conditions: DPX-F6025 at 10ppb, activity without herbicide = 100 percent
Procedure: (§1) Approximately 1-2 weeks late shoots developing on kanamycin-selected explants were excised with a sterile scalpel and planted in A medium containing 100 mg/l kanamycin. Root formation on selective and non-selective media was recorded within 3 weeks. Shoots which rooted in kanamycin were transferred to soil and grown in a growth chamber as described above. After 3 to 5 weeks, but before flowering had occurred, leaf tissue was excised and used for ALS assays as described in Example VI. […] Individual flowers were bagged to permit self-fertilization without cross-pollination. Mature seeds were harvested and progeny tests were conducted to determine inheritance of the herbicide resistance trait. Seeds were surface sterilized as described above, dried and planted on SG medium (1/4 MS salts, 0.75% sucrose, 0.8% Agar) in the presence or absence of herbicide (DPX-F6025, Classic®). […] A segregration ratio of 3 resistant progeny to 1 sensitive indicated the presence of a single-site insertion of the SURB-Hra gene in the trasnformant which was stably inherited. […] Higher ratios of resistant to sensitive progeny indicated multiple insertions at unlinked positions in the genome. The 15/1 ratio indicates the presence of 2 unlinked SURB-Hra genes and 255/1 ratio indicates 4 unlinked SURB-Hra genes in the transformants K14 #40 and K14 #7, respectively.
Keep on ice. • 2. […] Read at OD 530.

[3] = test system: progeny of tobacco transformants; assay: Progeny test of seeds on SG medium with herbicide; type: in vivo, Nicotiana tabacum CV.NK326 or K14
Procedure: as §1

[4] = test system: ALS; assay: ALS assay of leaf extracts, wild-type tomato; type: biochemical, Lycopersicon esculentum var. Herbst Red Cherry
Procedure: After approximately 2-4 weeks, shoots developing off of kanamycin-selected cotyledons were excised and planted in OMS media containing 500 mg/L cefotaxime and 100 mg/L kanamycin. Tomato shoots which rooted in kanamycin after about 2-3 weeks were transferred to soil in 8" pots and covered with plastic bags. The plants were grown under mixed fluorescent and incandescent lights for a 12 hr, 24°C day; 12 hr, 20°C night cycle, with approximately 80% relative humidity, for one week before removing the plastic bags. The plants were grown for another 2-4 weeks before performing ALS assays. […]
Keep on ice. • 2. […] 16K rpm, 4°C. • 4. […] Incubate on ice for 30 minutes. • 6. […] Decant supernatant. • 7. Resuspend pellet in 1 ml cold column buffer. • 8. […] Let this run through column. • 9. Elute proteins with 2X volume of extract loaded. […] Incubate reaction for 1 hour, 30°C. • 12. […] Spin in microfuge 5 minutes. • 13. […] Read at OD 530.

[5] = test system: tobacco callus; assay: Growth of tobacco mutant callus (C3, S4, Hra) on herbicide; type: cell-based, Nicotiana tabacum var. Xanthi
Procedure: (§2) Callus cultures of sensitive tobacco (Nicotiana tabacum var. Xanthi) were exposed to sulfometuron methyl at 2 ppb according to the method described by Chaleff, U.S. 4,443,971. […] Plants were regenerated from Hra callus cultures. […] ALS activity in extracts of leaves of wild type and homozygous Hra mutant tobacco plants was determined.

[6] = test system: ALS; type: biochemical, Nicotiana tabacum; conditions: C3 and S4 lines
Procedure: as §2

Question: `CC(C)C1(C)N=C(c2ncccc2C(=O)O)NC1=O.CC(C)N` (stereo not drawn) was tested. Which “cross resistance to foliar application” value [1] did it give?
Answer: The value was “cross resistant”.

Question: With “6-(4-isopropyl-4-methyl-5-oxo-2-imidazolin-2-yl)-m-toluic acid and p-toluic acid, methyl esters” as the compound, how does the “cross resistance to foliar application” value [1] read?
Answer: Its value is “cross resistant”.

Question: `COc1nc(C)nc(NC(=O)NS(=O)(=O)c2ccccc2OCCCl)n1` [2-(2-chloroethoxy)-N-[(4-methoxy-6-methyl-1,3,5-triazin-2-yl)aminocarbonyl]benzenesulfonamide] was tested. Which “cross resistance to foliar application” value [1] did it give?
Answer: The value was “cross resistant”.

Question: Which “cross resistance to foliar application” value [1] does the source give for `CC(C)C1(C)N=C(c2nc3ccccc3cc2C(=O)O)NC1=O` (stereo not drawn) [2-[4,5-dihydro-4-methyl-4-(1-methylethyl)-5-oxo-1H-imidazol-2-yl]-3-quinolinecarboxylic acid] here?
Answer: The value was “cross resistant”.

Question: `COC(=O)c1ccccc1S(=O)(=O)NC(=O)Nc1nc(C)cc(C)n1` [2-[[(4,6-dimethylpyrimidin-2-yl)aminocarbonyl]aminosulfonyl]benzoic acid, methyl ester] was tested. Which “cross resistance to foliar application” value [1] did it give?
Answer: Its value is “cross resistant”.

Question: For `CCOC(=O)c1ccccc1S(=O)(=O)NC(=O)Nc1nc(Cl)cc(OC)n1` [2-[[(4-chloro-6-methoxypyrimidin-2-yl)aminocarbonyl]aminosulfonyl]benzoic acid, ethyl ester], which “cross resistance to foliar application” value [1] is on record?
Answer: The value was “cross resistant”.

Question: How did the “cross resistance to foliar application” value [1] turn out when `COC(=O)c1c(C)cccc1S(=O)(=O)NC(=O)Nc1nc(C)cc(OC)n1` [2-[[(4-methoxy-6-methylpyrimidin-2-yl)aminocarbonyl]aminosulfonyl]-6-methylbenzoic acid, methyl ester] was run?
Answer: The value was “cross resistant”.

Question: With `COc1nc(C)nc(NC(=O)NS(=O)(=O)c2ccccc2Cl)n1` [2-chloro-N-[(4-methoxy-6-methyl-1,3,5-triazin-2-yl)aminocarbonyl]benzenesulfonamide] as the compound, how does the “cross resistance to foliar application” value [1] read?
Answer: Its value is “cross resistant”.

Question: For `Cc1cc(C)n2nc(S(=O)(=O)Nc3c(C)cccc3[N+](=O)[O-])nc2n1` [5,7-dimethyl-N-(2-methyl-6-nitrophenyl)[1,2,4]triazolo[1,5-A]pyrimidin-2-sulfonamide], which “cross resistance to foliar application” value [1] is on record?
Answer: The value was “cross resistant”.

Question: With `CCC1C=NC(C2=NC(C)(C(C)C)C(=O)N2)=C(C(=O)O)C1` (stereo not drawn) [5-ethyl-4,5-dihydro-2-[4-methyl-4-(1-methylethyl)-5-oxo-1H-imidazol-2-yl]-3-pyridinecarboxylic acid] as the compound, how does the “cross resistance to foliar application” value [1] read?
Answer: Its value is “cross resistant”.

Question: With `COc1cc(OC)nc(NC(=O)NS(=O)(=O)c2c(Cl)ccc3c2S(=O)(=O)N(C)CC3)n1` [7-chloro-N-[(4,6-dimethoxypyrimidin-2-yl)aminocarbonyl]-3,4-dihydro-2-methyl-2H-1,2-benzothiazine-8-sulfonamide, S,S-dioxide] as the compound, how does the “cross resistance to foliar application” value [1] read?
Answer: The value was “cross resistant”.

Question: What does the source list for `CCOC(=O)c1ccccc1S(=O)(=O)NC(=O)Nc1nc(Cl)cc(OC)n1` [DPX-F6025]?
Answer: % Unhibited ALS Activity ([2]; K14 wT): 7%; % Unhibited ALS Activity ([2]; NK326(wT)): 7%; Progeny Resistant/Sensitive ([3]; K14 #7, 100ppb DPX-F6025): 990/4; Progeny Resistant/Sensitive ([3]; K14 #7, 1000bbp DPX-F6025): 109/1; Progeny Resistant/Sensitive ([3]; K14 #11, 100ppb DPX-F6025): 208/85; Progeny Resistant/Sensitive ([3]; K14 #11, 1000bbp DPX-F6025): 127/76; Progeny Resistant/Sensitive ([3]; K14 #27, 100ppb DPX-F6025): 129/45; Progeny Resistant/Sensitive ([3]; K14 #27, 1000bbp DPX-F6025): 108/42; Progeny Resistant/Sensitive ([3]; K14 #29, 100ppb DPX-F6025): 192/46; Progeny Resistant/Sensitive ([3]; K14 #29, 1000bbp DPX-F6025): 163/67; Progeny Resistant/Sensitive ([3]; K14 #32c, 100ppb DPX-F6025): 140/65; Progeny Resistant/Sensitive ([3]; K14 #32c, 1000bbp DPX-F6025): 63/86; Progeny Resistant/Sensitive ([3]; K14 #40, 100ppb DPX-F6025): 218/18; Progeny Resistant/Sensitive ([3]; K14 #40, 1000bbp DPX-F6025): 212/26; Progeny Resistant/Sensitive ([3]; K14 #41, 100ppb DPX-F6025): 255/35; Progeny Resistant/Sensitive ([3]; K14 #41, 1000bbp DPX-F6025): 296/74; Progeny Resistant/Sensitive ([3]; K14 #42, 100ppb DPX-F6025): 162/74; Progeny Resistant/Sensitive ([3]; K14 #42, 1000bbp DPX-F6025): 77/72; Progeny Resistant/Sensitive ([3]; K14 #53, 100ppb DPX-F6025): 130/59; Progeny Resistant/Sensitive ([3]; K14 #53, 1000bbp DPX-F6025): 149/139; Progeny Resistant/Sensitive ([3]; K14 #54A, 100ppb DPX-F6025): 137/55; Progeny Resistant/Sensitive ([3]; K14 #54A, 1000bbp DPX-F6025): 100/72; Progeny Resistant/Sensitive ([3]; K24 #31, 100ppb DPX-F6025): 106/35; Progeny Resistant/Sensitive ([3]; K24 #31, 1000bbp DPX-F6025): 99/34; Progeny Resistant/Sensitive ([3]; NK326 #9c, 100ppb DPX-F6025): 163/49; Progeny Resistant/Sensitive ([3]; NK326 #9c, 1000bbp DPX-F6025): 99/63; Progeny Resistant/Sensitive ([3]; NK326 #10, 100ppb DPX-F6025): 93/31; Progeny Resistant/Sensitive ([3]; NK326 #10, 1000bbp DPX-F6025): 96/24; Progeny Resistant/Sensitive ([3]; NK326 #10c, 100ppb DPX-F6025): 333/45; Progeny Resistant/Sensitive ([3]; NK326 #10c, 1000bbp DPX-F6025): 290/76; Progeny Resistant/Sensitive ([3]; NK326 #9d, 100ppb DPX-F6025): 288/67; Progeny Resistant/Sensitive ([3]; NK326 #9d, 1000bbp DPX-F6025): 150/58; Progeny Resistant/Sensitive ([3]; X14 #54, 100ppb DPX-F6025): 99/38; Progeny Resistant/Sensitive ([3]; X14 #54, 1000bbp DPX-F6025): 92/43; Progeny Resistant/Sensitive ([3]; nk326 #1, 100ppb DPX-F6025): 98/37; Progeny Resistant/Sensitive ([3]; nk326 #1, 1000bbp DPX-F6025): 90/35; Percent Uninhibited ALS Activity ([4]; 10ppb): 15%; Percent Uninhibited ALS Activity ([4]; 100ppb): 5%; Percent Uninhibited ALS Activity ([4]; 1000ppb): 4%

Question: How did the “cross resistance to foliar application” value [1] turn out when `Cc1cc(C)n2nc(S(=O)(=O)Nc3c(Cl)cccc3Cl)nc2n1` [N-(2,6-dichlorphenyl)-5,7-dimethyl[1,2,4]triazolo [1,5-A]pyrimidin-2-sulfonamide] was run?
Answer: The value was “cross resistant”.

Question: `Cc1cc(C)n2nc(S(=O)(=O)Nc3c(C)cccc3Cl)nc2n1` [N-(2-chloro-6-methylphenyl)-5,7-dimethyl[1,2,4]triazolo[1,5-A]pyrimidin-2-sulfonamide] was tested. Which “cross resistance to foliar application” value [1] did it give?
Answer: The value was “cross resistant”.

Question: Which “cross resistance to foliar application” value [1] does the source give for `COc1cc(OC)nc(NC(=O)NS(=O)(=O)c2cccc3c2S(=O)(=O)C(C)C3)n1` (stereo not drawn) [N-[(4,6-dimethoxypyrimidin-2-yl)aminocarbonyl]-2,3-dihydro-2-methylbenzo[β]thiophene-7-sulfonamide, 1,1-dioxide] here?
Answer: The value was “cross resistant”.

Question: `COC(=O)c1ccccc1S(=O)(=O)NC(=O)Nc1nc(C)cc(C)n1` [sulfometuron methyl] was tested. Which “selective herbicide resistance conferred by the mutation” value ([5]; C3 cell line (SURA-C3, proline-to-glutamine at position 197)) did it give?
Answer: Its value is “conferred resistance”.

Question: What about the “tolerated concentrations compared with that required to completely inhibit the growth of wild type callus” value ([5]; Hra cell line) of the same compound?
Answer: Its value is “one thousand times greater”.

Question: And the “selective concentration which completely inhibits the growth” value ([5]; S4 cell line)?
Answer: The value was 200 ppb.

Question: And the “resistance of ALS enzyme activity compared with ALS from wild type” value [6]?
Answer: The value was “one-hundred fold”.
